One data set deals with IL1. Briefly: Effect on IL1 (method of Freed). The data set is classed as cell-based. Particulars: compared with cyclosporine A. The text has this: (§1) The effect of CM Peak H on IL1, IL2 and IL2 receptor activity was studied using the method as described in Freed, B. M., Transplantation 43:123, 1987.
The subject of data set [1] is LLC-PK1 cells. As to conditions: renal epithelial cell line LLC-PK1.
Data set [2] has as its system L2 cells. Particulars: murine lung cell line L2.
Another data set relates to phospholipase A2. Particulars: at concentrations of 1 mg/ml or greater.
Data set [3] deals with LLC-PK1 cells. As to conditions: renal epithelial cell line LLC-PK1; CsA: to 1 ng/ml.
Data set [4] relates to Renal glomerular mesangial cells. Particulars: CsA: to 1 ng/ml, CM effects only at concentrations greater than 1 and 5 μg/ml.
Data set [5] deals with L2 cells. Particulars: murine lung cell line L2. The source holds these as a separate data set.
For data set [6] the following is noted: CM extracted from bile of liver transplant recipients, relative area by UV spectroscopy.
Data set [7] has as its system LLC-PK1 cells. As to conditions: renal epithelial cell line LLC-PK1; 19 h + 5 h incubation.
The next data set deals with IL2. Briefly: Effect on IL2 (method of Freed). The data set is classed as cell-based. Particulars: compared with cyclosporine A.
Excerpt: as §1

Data set [8] relates to Renal glomerular mesangial cells. Particulars: CM effects only at concentrations greater than 1 and 5 μg/ml.
For data set [9] the following is noted: for Amount of cyclosporine per liter of bile as determined with internal standard: 100 ml bile extracted, analytical gradient HPLC with CsA internal standard; for Mean % of total concentration of cyclosporine (mean value, n = 5): bile of five CsA treated liver transplant individuals.
The subject of data set [10] is L2 cells. As to conditions: murine lung cell line L2. The source holds these as a separate data set.
The subject of a further data set is IL2 receptors. The data set can be described thus: Effect on IL2 receptor activity (method of Freed). The data set is classed as cell-based. As to conditions: compared with cyclosporine A.
Excerpt: as §1

Data set [11] concerns Renal glomerular mesangial cells. Particulars: CM effects only at concentrations greater than 1 and 5 μg/ml. The source holds these as a separate data set.
A further data set has as its system lymphocyte proliferation. As to conditions: Freed 1987; OL-17 followed by OL-1 and OL-21; cited from earlier work.
In a further data set the test system is IL2 production. As to conditions: Freed 1987; OL-17 followed by OL-1 and OL-21; cited from earlier work.
In another data set the test system is rat. As to conditions: Ryffel 1988; cited from earlier work.

Several values for one entry are separate records, joined by “and”; a condition that tells them apart may be missing. Identical values can stand only once. Like-named read-outs stand apart in the source and are kept apart here.

Consider `C/C=C/C[C@@H](C)[C@@H](O)[C@H]1C(=O)N[C@@H](CC)C(=O)N(C)CC(=O)N(C)[C@@H](CC(C)C)C(=O)N[C@@H](C(C)C)C(=O)N(C)[C@@H](CC(C)C)C(=O)N[C@@H](C)C(=O)N[C@H](C)C(=O)N(C)[C@@H](CC(C)(C)O)C(=O)N[C@@H](CC(C)C)C(=O)N(C)[C@@H](C(C)C)C(=O)N1C` [CM Peak H], for which the “Inhibiting formation of, and action of IL1” value with IL1 is on record as “as effective as cyclosporine A”. Moreover, the “Inhibition of RNA synthesis” value is “no inhibitory effects” with LLC-PK1 cells [1], “no inhibitory effects” in the data set on L2 cells [2], “some inhibitory effects” in data set [8] and “least inhibitory effects” in data set [8] (listed as Metabolite H). Further, the “Inhibition of phospholipase A2 activity” value in the data set on phospholipase A2 is on record as “no such inhibitory activity”. Also, the “Inhibition of protein synthesis” value in the data set with LLC-PK1 cells [3] is “no inhibitory effects”; in data set [4] it was “some inhibitory effects”; in [4] (listed as Metabolite H) it was “least inhibitory effects”; in the data set on L2 cells [10], “no inhibitory effects”. Also, the “Inhibition of DNA synthesis” value with L2 cells [5] is “no inhibitory effects”; in the data set on LLC-PK1 cells [7] it was “no inhibitory effects”; in data set [11], “some inhibitory effects”; in [11] (listed as Metabolite H), “least inhibitory effects”. Further, the “Percentage of total CM” value in data set [6] (listed as H) is 6.3%; in [6] (listed as peak H), 6.33%. In addition, in the data set on IL2, the “Inhibiting formation of, and action of IL2” value is recorded as “as effective as cyclosporine A”. The “Amount of cyclosporine per liter of bile as determined with internal standard” value (“Amount of cyclosporine per liter of bile” below) in data set [9] came to 536 µg/L. In addition, the “Amount in RIA profile of bile” value in [9] (bile, gradient HPLC/polyclonal antibody RIA) is “above 250 μg/L CsA equivalents”. Besides, the “Inhibiting formation of, and action of IL2 receptors” value with IL2 receptors is recorded as “as effective as cyclosporine A”.

With `C/C=C/C[C@@H](C)[C@@H](O)[C@H]1C(=O)N[C@@H](CC)C(=O)N(C)CC(=O)N(C)[C@@H](CC(C)C)C(=O)N[C@@H](C(C)C)C(=O)N(C)[C@@H](CC(C)C)C(=O)N[C@@H](C)C(=O)N[C@H](C)C(=O)N(C)[C@@H](CC(C)(C)O)C(=O)N(C)[C@@H](CC(C)C)C(=O)N(C)[C@@H](C(C)C)C(=O)N1C` [OL-1, 9-hydroxy cyclosporine A], the “Ability to inhibit lymphocyte proliferation in a mixed lymphocyte reaction, compared to CsA” value with lymphocyte proliferation is “comparable effects”. For the same molecule, the entries for the “Inhibition of RNA synthesis” value (with LLC-PK1 cells [1]; in the data set on L2 cells [2]; in [8]) were “no inhibitory effects”, “no inhibitory effects” and “some inhibitory effects”, respectively. For the same molecule, the “Inhibition of protein synthesis” value was “no inhibitory effects” in the data set with LLC-PK1 cells [3], “some inhibitory effects” in data set [4] and “no inhibitory effects” with L2 cells [10]. In addition, the “Inhibition of DNA synthesis” value was “no inhibitory effects” in the data set on L2 cells [5], “no inhibitory effects” with LLC-PK1 cells [7] and “some inhibitory effects” in data set [11]. Further, the “Ability to inhibit IL2 production, compared to CsA” value in the data set with IL2 production is reported as “comparable effects”. In addition, the “Amount of cyclosporine per liter of bile” value in data set [9] is 364 µg/L.

With `CC[C@@H]1NC(=O)[C@H]([C@H](O)[C@H](C)C/C=C/CO)N(C)C(=O)[C@H](C(C)C)N(C)C(=O)[C@H](CC(C)C)N(C)C(=O)[C@H](CC(C)(C)O)N(C)C(=O)[C@@H](C)NC(=O)[C@H](C)NC(=O)[C@H](CC(C)C)N(C)C(=O)[C@H](C(C)C)NC(=O)[C@H](CC(C)C)N(C)C(=O)CN(C)C1=O` [OL-8, 1,9 dihydroxy cyclosporine A], the figures for the “Inhibition of RNA synthesis” value (with LLC-PK1 cells [1]; with L2 cells [2]; in data set [8]) were “no inhibitory effects”, “no inhibitory effects” and “some inhibitory effects”, respectively. The “Inhibition of protein synthesis” value is recorded as “no inhibitory effects” in the data set with LLC-PK1 cells [3], “some inhibitory effects” in data set [4] and “no inhibitory effects” in the data set on L2 cells [10]. Besides, the “Inhibition of DNA synthesis” value is reported as “no inhibitory effects” in the data set on L2 cells [5], “no inhibitory effects” in the data set with LLC-PK1 cells [7] and “some inhibitory effects” in data set [11]. Further, the “Amount of cyclosporine per liter of bile” value in data set [9] worked out at 640 µg/L. For the same molecule, the “Mean % of total concentration of cyclosporine (mean value, n = 5)” value in [9] was 10.86 ± 2.4% and 11%.

As for `CC[C@@H]1NC(=O)[C@H]([C@H](O)[C@H](C)C/C=C/CO)N(C)C(=O)[C@H](C(C)C)N(C)C(=O)[C@H](CC(C)C)N(C)C(=O)[C@H](CC(C)C)N(C)C(=O)[C@@H](C)NC(=O)[C@H](C)NC(=O)[C@H](CC(C)C)N(C)C(=O)[C@H](C(C)C)NC(=O)[C@H](CC(C)C)N(C)C(=O)CN(C)C1=O` [OL-17, 1-hydroxy cyclosporine A], in the data set on lymphocyte proliferation, the “Ability to inhibit lymphocyte proliferation in a mixed lymphocyte reaction, compared to CsA” value was “comparable effects”. Besides, the “Inhibition of RNA synthesis” value with LLC-PK1 cells [1] was “no inhibitory effects”; in the data set on L2 cells [2] it was “no inhibitory effects”; in data set [8], “some inhibitory effects”. Moreover, the Toxicity in vivo entry in the data set on rat is reported as “not toxic”. Moreover, the “Inhibition of protein synthesis” value with LLC-PK1 cells [3] is listed as “no inhibitory effects”; in data set [4], “some inhibitory effects”; in the data set on L2 cells [10] it was “no inhibitory effects”. The “Inhibition of DNA synthesis” value with L2 cells [5] is listed as “no inhibitory effects”; with LLC-PK1 cells [7], “no inhibitory effects”; in data set [11], “some inhibitory effects”. In addition, the “Ability to inhibit IL2 production, compared to CsA” value with IL2 production is listed as “comparable effects”. Also, the “Amount of cyclosporine per liter of bile” value in [9] came to 853 µg/L. Moreover, the “Mean % of total concentration of cyclosporine (mean value, n = 5)” value in [9] was 16.00 ± 4.4% and 16%.

The values are drawn from patent US5202310A, “Cyclosporine metabolites” (priority 1990, dated 1993).
